Counter-ions that a name gives are not always drawn. Where only a bound is given, the exact number is not on record here.

As a reminder, the Kd is the concentration at which binding is half-saturated. Low values mean higher affinity, high ones lower affinity.

Sequence of CRBN-DDB1 (Q96SW2 whole entry): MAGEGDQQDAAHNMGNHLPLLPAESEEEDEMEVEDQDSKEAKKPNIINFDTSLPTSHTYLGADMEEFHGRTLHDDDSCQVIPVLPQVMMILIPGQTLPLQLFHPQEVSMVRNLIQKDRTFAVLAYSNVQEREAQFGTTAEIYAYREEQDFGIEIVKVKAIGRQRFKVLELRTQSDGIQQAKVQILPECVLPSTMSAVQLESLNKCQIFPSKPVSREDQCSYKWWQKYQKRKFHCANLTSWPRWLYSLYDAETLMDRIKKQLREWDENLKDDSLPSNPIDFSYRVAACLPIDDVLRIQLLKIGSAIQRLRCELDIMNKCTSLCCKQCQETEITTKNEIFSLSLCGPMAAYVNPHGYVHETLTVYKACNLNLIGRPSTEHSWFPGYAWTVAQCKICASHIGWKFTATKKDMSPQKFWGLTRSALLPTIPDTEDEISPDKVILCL
Sequence of CRBN-DDB1 (Q16531 whole entry partner): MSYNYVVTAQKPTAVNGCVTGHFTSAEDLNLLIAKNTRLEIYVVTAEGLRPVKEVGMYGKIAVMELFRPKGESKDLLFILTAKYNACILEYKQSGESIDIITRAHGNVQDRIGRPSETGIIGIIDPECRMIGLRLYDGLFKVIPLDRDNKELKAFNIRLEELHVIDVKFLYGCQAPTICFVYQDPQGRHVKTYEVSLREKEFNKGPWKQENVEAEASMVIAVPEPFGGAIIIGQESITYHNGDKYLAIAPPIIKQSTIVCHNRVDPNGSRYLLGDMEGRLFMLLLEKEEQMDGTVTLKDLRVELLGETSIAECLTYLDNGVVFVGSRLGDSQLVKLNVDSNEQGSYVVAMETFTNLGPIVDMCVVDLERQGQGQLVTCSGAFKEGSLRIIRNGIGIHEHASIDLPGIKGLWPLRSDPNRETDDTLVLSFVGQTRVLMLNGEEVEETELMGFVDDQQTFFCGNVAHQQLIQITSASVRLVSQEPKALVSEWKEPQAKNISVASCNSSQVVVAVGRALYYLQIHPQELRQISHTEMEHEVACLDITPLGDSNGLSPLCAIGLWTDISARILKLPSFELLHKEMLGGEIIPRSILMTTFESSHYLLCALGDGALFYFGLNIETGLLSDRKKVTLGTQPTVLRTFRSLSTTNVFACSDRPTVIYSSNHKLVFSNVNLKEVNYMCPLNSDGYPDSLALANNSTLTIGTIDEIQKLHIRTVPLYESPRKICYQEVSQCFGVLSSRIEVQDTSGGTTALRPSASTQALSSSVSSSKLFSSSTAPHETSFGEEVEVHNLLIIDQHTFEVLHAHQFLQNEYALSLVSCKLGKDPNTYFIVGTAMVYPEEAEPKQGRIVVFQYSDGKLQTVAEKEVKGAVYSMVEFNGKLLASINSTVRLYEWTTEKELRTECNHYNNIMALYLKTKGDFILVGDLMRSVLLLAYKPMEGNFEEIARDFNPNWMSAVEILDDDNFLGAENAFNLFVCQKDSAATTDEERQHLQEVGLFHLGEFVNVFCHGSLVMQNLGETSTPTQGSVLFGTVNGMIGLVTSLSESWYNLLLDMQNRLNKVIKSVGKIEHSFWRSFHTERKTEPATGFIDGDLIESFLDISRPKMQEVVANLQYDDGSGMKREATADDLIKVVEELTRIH

In this test the target is CRBN-DDB1 (Homo sapiens (Human), UniProt Q96SW2). Nature of the test: CRBN-DDB1 fluorescence polarization (FP) binding assay. The settings on record: displacement of Thalidomide-Alexa Fluor or Pomalidomide-fluorescein probe. As to the method:
Measuring compound ligand binding to CRBN-DDB1 was carried out using an established sensitive and quantitative in vitro fluorescence polarization (FP) based binding assay. […] Compounds were dispensed from serially diluted DMSO stock into black 384-well compatible fluorescence polarization plates using an Echo acoustic dispenser. Compound binding to CRBN-DDB1 was measured by displacement of either a (−)-Thalidomide-Alexa Fluor® or Pomalidomide-fluorescein conjugated probe dye. […] Matching control wells excluding CRBN-DDB1 were used to correct for background fluorescence. Plates were read on an Envision plate reader with appropriate FP filter sets. The corrected S (perpendicular) and P (parallel) values were used to calculate fluorescence polarization (FP) with the following equation: FP=1000*(S−G*P)/(S+G*P).
Regarding `O=C1NC(=O)C2(c3ccccc3)CC12` (stereo not shown) [Compound 1, 1-phenyl-3-azabicyclo[3.1.0]hexane-2,4-dione], the Kd is > 100 µM.
Under `O=C1NC(=O)C2(c3ccccc3)CC1C2` [Compound 2, 1-Phenyl-3-azabicyclo[3.1.1]heptane-2,4-dione] stands > 30 µM; under `O=C1NC(=O)C2(c3ccc([N+](=O)[O-])cc3)CC12` (stereo not shown) [Compound 3, 1-(4-Nitrophenyl)-3-azabicyclo[3.1.0]hexane-2,4-dione], > 100 µM.
With `Nc1ccc(C23CC2C(=O)NC3=O)cc1` (stereo not shown) [Compound 4, 1-(4-Aminophenyl)-3-azabicyclo[3.1.0]hexane-2,4-dione], the Kd is > 30 µM.
Under `CN(C)CC(=O)Nc1ccc(C23CC2C(=O)NC3=O)cc1` (stereo not shown) [Compound 5, 2-(dimethylamino)-N-(4-(2,4-dioxo-3-azabicyclo[3.1.0]hexan-1-yl)phenyl)acetamide] stands > 100 µM.
As for `CC(=O)Nc1ccc(C23CC2C(=O)NC3=O)cc1` (stereo not shown) [Compound 6, N-(4-(2,4-dioxo-3-azabicyclo[3.1.0]hexan-1-yl)phenyl)acetamide], the Kd is > 100 µM.
For `CS(=O)(=O)Nc1ccc(C23CC2C(=O)NC3=O)cc1` (stereo not shown) [Compound 7, N-(4-(2,4-dioxo-3-azabicyclo[3.1.0]hexan-1-yl)phenyl)methanesulfonamide], the Kd was > 100 µM.
The same measure for `CC1(c2ccccc2)CCC(=O)NC1=O` (stereo not shown) [Compound 8, 3-Methyl-3-phenylpiperidine-2,6-dione]: > 30 µM.
The same measure for `CC1(c2ccc(N)cc2)CCC(=O)NC1=O` (stereo not shown) [Compound 10, 3-(4-Aminophenyl)-3-methylpiperidine-2,6-dione]: > 30 µM; for `CC1(c2ccccc2N)CCC(=O)NC1=O` (stereo not shown) [Compound 11, 3-(2-aminophenyl)-3-methylpiperidine-2,6-dione]: > 30 µM; for `Cn1c(CC2CCC(=O)NC2=O)nc2ccccc21` (stereo not shown) [Compound 12]: 50 to 100 µM.
For `Cn1nc(CC2CCC(=O)NC2=O)c2ccccc21` (stereo not shown) [Compound 13, 3-((1-methyl-1H-indazol-3-yl)methyl)piperidine-2,6-dione], the Kd was > 100 µM.
Molecule `O=C1CCC(C(=O)Nc2ccccc2)C(=O)N1` (stereo not shown) [Compound 14] displayed a Kd of 50 to 100 µM.
Regarding `COc1ccccc1NC(=O)C1CCC(=O)NC1=O` (stereo not shown) [Compound 15], the Kd lay in the range of 10 to 50 µM.
On to `O=C1CCC(C(=O)Nc2cccnc2)C(=O)N1` (stereo not shown) [Compound 16], for which the Kd is > 100 µM.
The same measure for `O=C1CCC(C(=O)Nc2ccccn2)C(=O)N1` (stereo not shown) [Compound 17]: > 100 µM; for `O=C1CCC(C(=O)Nc2ccccc2F)C(=O)N1` (stereo not shown) [Compound 18]: > 100 µM; for `COc1ccccc1N(C)C(=O)C1CCC(=O)NC1=O` (stereo not shown) [Compound 19]: > 100 µM.
The same measure for `CN(C(=O)C1CCC(=O)NC1=O)c1ccccn1` (stereo not shown) [Compound 20]: > 100 µM; for `CN(C(=O)C1CCC(=O)NC1=O)c1ccccc1F` (stereo not shown) [Compound 21]: 50 to 100 µM.
Take `CN(C(=O)C1CCC(=O)NC1=O)c1ccccc1` (stereo not shown) [Compound 22]: the Kd was > 100 µM.
Regarding `O=C1CCC(CC(=O)Nc2ccccc2F)C(=O)N1` (stereo not shown) [Compound 23, 2-(2,6-Dioxo-piperidin-3-yl)-N-(2-fluoro-phenyl)-acetamide], the Kd lay in the range of 50 to 100 µM.
For `O=C1CCC(Cc2cn(-c3ccccc3)nn2)C(=O)N1` (stereo not shown) [Compound 24, 3-(1-Phenyl-1H-[1,2,3]triazol-4-ylmethyl)-piperidine-2,6-dione], the Kd was in the range of 10 to 50 µM.
The same measure for `Cn1cc(CC2CCC(=O)NC2=O)nn1` (stereo not shown) [Compound 25, 3-(1-Methyl-1H-[1,2,3]triazol-4-ylmethyl)-piperidine-2,6-dione]: 50 to 100 µM; for `Cn1cc(C2CCC(=O)NC2=O)nn1` (stereo not shown) [Compound 26, 3-(1-Methyl-1H-[1,2,3]triazol-4-yl)-piperidine-2,6-dione]: 50 to 100 µM; for `O=C1CCC(c2cn(-c3ccccc3)nn2)C(=O)N1` (stereo not shown) [Compound 27, 3-(1-Phenyl-1H-[1,2,3]triazol-4-yl)-piperidine-2,6-dione]: 10 to 50 µM.
Regarding `O=C1CCC(c2ncc3ccccn23)C(=O)N1` (stereo not shown) [Compound 28, 3-Imidazo[1,5-a]pyridin-3-yl-piperidine-2,6-dione], the Kd was < 10 µM.
As for `Cn1cc(C2CCC(=O)NC2=O)c2ccccc21` (stereo not shown) [Compound 29, 3-(1-Methyl-1H-indol-3-yl)-piperidine-2,6-dione], the Kd was < 10 µM.
For `Cn1nc(C2CCC(=O)NC2=O)cc1-c1ccccc1` (stereo not shown) [Compound 30, 3-(1-methyl-5-phenyl-1H-pyrazol-3-yl)-piperidine-2,6-dione], the Kd was < 10 µM.
Under `Cn1nc(-c2ccccc2)cc1C1CCC(=O)NC1=O` (stereo not shown) [Compound 31, 3-(1-methyl-3-phenyl-1H-pyrazol-5-yl)piperidine-2,6-dione] stands 50 to 100 µM; under `Cc1ccccc1C1CCC(=O)NC1=O` (stereo not shown) [Compound 32, 3-(o-tolyl)piperidine-2,6-dione], 10 to 50 µM; under `Cn1ccc(C2CCC(=O)NC2=O)n1` (stereo not shown) [Compound 33, 3-(1-methyl-1H-pyrazol-3-yl)piperidine-2,6-dione], 10 to 50 µM.
Molecule `COc1cccc(C2CCC(=O)NC2=O)n1` (stereo not shown) [Compound 34, 3-(6-methoxypyridin-2-yl)piperidine-2,6-dione] displayed a Kd of 10 to 50 µM.
Under `Cn1ccc2ccc(C3CCC(=O)NC3=O)nc21` (stereo not shown) [Compound 35, 3-(1-Methyl-1H-pyrrolo[2,3-b]pyridin-6-yl)-piperidine-2,6-dione] stands 10 to 50 µM; under `Cn1cnc2c(C3CCC(=O)NC3=O)cccc21` (stereo not shown) [Compound 36, 3-(1-methyl-1H-benzo[d]imidazol-4-yl)piperidine-2,6-dione], 10 to 50 µM; under `Cn1nc(C2CCC(=O)NC2=O)c2ccccc21` (stereo not shown) [Compound 37, 3-(1-Methyl-1H-indazol-3-yl)-piperidine-2,6-dione], < 10 µM.
In the case of `Cn1nc([C@@H]2CCC(=O)NC2=O)c2ccccc21` [Compound 38], the Kd is < 10 µM.
Molecule `Cn1nc([C@H]2CCC(=O)NC2=O)c2ccccc21` [Compound 39] gave a Kd of 10 to 50 µM.
Under `Cn1c(=O)c(C2CCC(=O)NC2=O)cc2ccccc21` (stereo not shown) [Compound 40, 3-(1-Methyl-2-oxo-1,2-dihydro-quinolin-3-yl)-piperidine-2,6-dione] stands < 10 µM; under `CN1Cc2ccc(C3CCC(=O)NC3=O)cc2C1=O` (stereo not shown) [Compound 41, 3-(2-Methyl-3-oxo-2,3-dihydro-1H-isoindol-5-yl)-piperidine-2,6-dione], 10 to 50 µM; under `CC(C)(C)OC(=O)N1Cc2cccc(C3CCC(=O)NC3=O)c2C1` (stereo not shown) [Compound 42, 4-(2,6-dioxo-piperidin-3-yl)-1,3-dihydro-isoindole-2-carboxylic acid tert-butyl ester], 10 to 50 µM.
Turning to `CC(C)(C)OC(=O)N1CCN(C(=O)CC2CCC(=O)NC2=O)CC1` (stereo not shown) [Compound 44, 4-[2-(2,6-Dioxo-piperidin-3-yl)-acetyl]-piperazine-1-carboxylic acid tert-butyl ester], the Kd lay within 50 to 100 µM.
Consider `O=C1CCC(CC(=O)N2CCNCC2)C(=O)N1` (stereo not shown) [Compound 45, 3-(2-Oxo-2-piperazin-1-yl-ethyl)-piperidine-2,6-dione hydrochloride Salt], for which the Kd lay in the range of 50 to 100 µM.
The same measure for `Cc1nc(C2CCC(=O)NC2=O)cn1-c1ccccc1` (stereo not shown) [Compound 46, 3-(2-Methyl-1-phenyl-1H-imidazol-4-yl)-piperidine-2,6-dione]: 10 to 50 µM; for `Cn1nc(C2(C)CCC(=O)NC2=O)c2ccccc21` (stereo not shown) [Compound 47, 3-Methyl-3-(1-methyl-1H-indazol-3-yl)-piperidine-2,6-dione]: 10 to 50 µM.
In the case of `Cc1nc2cc(C3CCC(=O)NC3=O)ccc2s1` (stereo not shown) [Compound 48, 3-(2-Methyl-benzothiazol-5-yl)-piperidine-2,6-dione], the Kd was < 10 µM.
Under `Cn1c(=O)oc2ccc(C3CCC(=O)NC3=O)cc21` (stereo not shown) [Compound 49, 3-(3-Methyl-2-oxo-2,3-dihydro-benzooxazol-5-yl)-piperidine-2,6-dione] stands 10 to 50 µM; under `O=C1CCC(Cc2ccccc2)C(=O)N1` (stereo not shown) [Compound 50, 3-benzylpiperidine-2,6-dione], 10 to 50 µM; under `Cn1nc(C2CCC(=O)NC2=O)c2ccc(N)cc21` (stereo not shown) [Compound 51, 3-(6-amino-1-methyl-indazol-3-yl)piperidine-2,6-dione], 50 to 100 µM.
The same measure for `Cn1nc(C2CCC(=O)NC2=O)c2ccc(NC3CCN(C(=O)OC(C)(C)C)CC3)cc21` (stereo not shown) [Compound 52, tert-Butyl 4-((3-(2,6-dioxopiperidin-3-yl)-1-methyl-1H-indazol-6-yl)amino)piperidine-1-carboxylate]: < 10 µM; for `Cn1nc(C2CCC(=O)NC2=O)c2ccc(NC3CCNCC3)cc21` (stereo not shown) [Compound 53, 3-(1-Methyl-6-(piperidin-4-ylamino)-1H-indazol-3-yl)piperidine-2,6-dione hydrochloride]: < 10 µM.
Regarding `CC(C)(C)OC(=O)N1Cc2ccc(C3CCC(=O)NC3=O)cc2C1` (stereo not shown) [Compound 54, 5-(2,6-Dioxo-piperidin-3-yl)-1,3-dihydro-isoindole-2-carboxylic acid tert-butyl ester], the Kd was in the range of 10 to 50 µM.
The molecule `O=C1CCC(c2ccc3c(c2)CNC3)C(=O)N1` (stereo not shown) [Compound 55, 3-(Isoindolin-5-yl)piperidine-2,6-dione hydrochloride] yielded a Kd of 50 to 100 µM.
On to `O=C1CCC(c2nccc3ccccc23)C(=O)N1` (stereo not shown) [Compound 58, 3-(Isoquinolin-1-yl)piperidine-2,6-dione], for which the Kd was in the range of 10 to 50 µM.
Regarding `Cn1cccc(C2CCC(=O)NC2=O)c1=O` (stereo not shown) [Compound 59, 3-(1-methyl-2-oxo-1,2-dihydropyridin-3-yl)piperidine-2,6-dione], the equilibrium dissociation constant (Kd) fell in the range of 50 to 100 µM.

Source of the values: patent publication US10849982B2, “C3-carbon linked glutarimide degronimers for target protein degradation” (C4 Therapeutics, Inc., priority 2016, dated 2020).
